Source: the supplement of paper PMC10307832

Tests used:
Test in all cases: relative viability (nuclei count vs DMSO), 5 days (fraction); higher = more cells survive
Midostaurin + Trametinib = compound: CO[C@@H]1[C@H](N(C)C(=O)c2ccccc2)C[C@H]2O[C@]1(C)n1c3ccccc3c3c4c(c5c6ccccc6n2c5c31)C(=O)NC4 [Midostaurin] + CC(=O)Nc1cccc(-n2c(=O)n(C3CC3)c(=O)c3c(Nc4ccc(I)cc4F)n(C)c(=O)c(C)c32)c1 [Trametinib] (partner 0.02 µM)
Method in brief: (§1)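 Lung cancer cell lines, seeded in 1536-well plates, were treated the following day by pin tool with a single drug or with five library-drug doses (not always all listed) in √10 steps on top of a fixed anchor-drug dose. Cells were fixed and nuclei stained in one step after 5 days, and nuclei were counted. Relative viability is the nuclei count for treated wells divided by that for vehicle wells, reported as medians of duplicate plates.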

Midostaurin + Dasatinib = compound: CO[C@@H]1[C@H](N(C)C(=O)c2ccccc2)C[C@H]2O[C@]1(C)n1c3ccccc3c3c4c(c5c6ccccc6n2c5c31)C(=O)NC4 [Midostaurin] + Cc1nc(Nc2ncc(C(=O)Nc3c(C)cccc3Cl)s2)cc(N2CCN(CCO)CC2)n1 [Dasatinib] (partner 0.075 µM)
Method in brief: as §1

[1] = compound: COc1cc(-c2nn([C@H]3CC[C@H](N4CCN(C(C)=O)CC4)CC3)c3ncnc(N)c23)ccc1NC(=O)c1cc2ccccc2n1C + CC(C)C[C@H](NC(=O)[C@H](Cc1ccccc1)NC(=O)c1cnccn1)B(O)O [Bortezomib] (partner 0.002 µM)
Method in brief: as §1

[2] = compound: COc1cc(-c2nn([C@H]3CC[C@H](N4CCN(C(C)=O)CC4)CC3)c3ncnc(N)c23)ccc1NC(=O)c1cc2ccccc2n1C + Cc1cc(Nc2cc(N3CCN(C)CC3)nc(Sc3ccc(NC(=O)C4CC4)cc3)n2)n[nH]1 [Tozasertib] (partner 0.1 µM)
Method in brief: as §1

[3] = compound: COc1cc(-c2nn([C@H]3CC[C@H](N4CCN(C(C)=O)CC4)CC3)c3ncnc(N)c23)ccc1NC(=O)c1cc2ccccc2n1C + O=C(CCCCCCC(=O)Nc1ccccc1)NO [Vorinostat] (partner 1 µM)
Method in brief: as §1

Cell Line	relative viability (Midostaurin + Trametinib; first compound 0.01 µM)	relative viability (Midostaurin + Trametinib; first compound 0.03162 µM)	relative viability (Midostaurin + Trametinib; first compound 0.1 µM)	relative viability (Midostaurin + Trametinib; first compound 0.3162 µM)	relative viability (Midostaurin + Dasatinib; first compound 0.01 µM)	relative viability (Midostaurin + Dasatinib; first compound 0.03162 µM)	relative viability (Midostaurin + Dasatinib; first compound 0.1 µM)	relative viability (Midostaurin + Dasatinib; first compound 0.3162 µM)	relative viability ([1]; first compound 0.0128 µM)	relative viability ([1]; first compound 0.04048 µM)	relative viability ([1]; first compound 0.128 µM)	relative viability ([1]; first compound 1.28 µM)	relative viability ([2]; first compound 0.0128 µM)	relative viability ([2]; first compound 0.04048 µM)	relative viability ([2]; first compound 0.128 µM)	relative viability ([2]; first compound 1.28 µM)	relative viability ([3]; first compound 0.0128 µM)	relative viability ([3]; first compound 0.04048 µM)	relative viability ([3]; first compound 0.128 µM)	relative viability ([3]; first compound 1.28 µM)
BEN	1.05	0.976	1.06	1.25	0.371	0.32	0.405	0.379	0.667	0.765	0.824	0.53	0.56	0.569	0.518	0.432	0.591	0.561	0.59	0.483
CAL-12T	0.399	0.298	0.331	0.33	0.446	0.395	0.295	0.239	1.11	0.943	0.938	0.972	0.29	0.275	0.221	0.178	0.871	0.706	0.702	0.753
COR-L23	0.599	0.555	0.573	0.497	0.436	0.455	0.368	0.27	0.991	1.4	0.873	0.908	0.246	0.217	0.147	0.133	0.528	0.615	0.42	0.558
COR-L 105	0.483	0.445	0.433	0.477	0.351	0.396	0.385	0.285	0.73	0.854	0.657	0.386	0.335	0.309	0.355	0.269	0.75	1.04	0.907	0.584
ChaGo-K-1	0.949	0.963	0.806	0.915	0.509	0.584	0.541	0.689	0.922	1.13	0.865	0.973	0.215	0.218	0.211	0.195	0.802	0.768	0.679	0.555
EKVX	0.321	0.348	0.292	0.351	0.696	0.598	0.468	0.456	1.07	1.1	0.917	0.401	0.398	0.379	0.332	0.19	0.966	0.801	0.674	0.382
EMC-BAC-2	0.853	0.791	0.876	0.699	0.358	0.372	0.273	0.248	1.03	1.12	1.04	1.12	0.276	0.377	0.331	0.273	0.466	0.602	0.418	0.504
EPLC-272H	0.352	0.304	0.28	0.301	0.381		0.422	0.351	0.993	0.933	0.952	0.902	0.38		0.235	0.19	0.357	0.345	0.62	0.457
H3255	0.61	0.608	0.656	0.628	0.346	0.29	0.37	0.354	0.92	0.765	0.721	0.779	0.829	0.591	0.571	0.581	1.01	0.725	0.824	0.708
HARA	0.994	0.663	0.887	0.393	0.262	0.22	0.269	0.283	1.12	1.16	1.1	0.803	0.11	0.0748	0.101	0.0842	0.698	0.372	0.421	0.325
HCC-15	0.411	0.353	0.367	0.372	0.735	0.655	0.657	0.635	1.25	1	0.963	1.11	0.332	0.473	0.331	0.247	0.954	0.752	0.85	0.698
HCC-78	0.757	0.612	0.739	0.463	0.375	0.371	0.373	0.219	0.547	0.724	0.566	0.43	0.456	0.368	0.742	0.269	0.462	0.547	0.422	0.298
HCC-366	0.304	0.33	0.283	0.122	0.634	0.583	0.537	0.638	0.951	0.859	1.09	0.849	0.114	0.0717	0.0637	0.0555	0.432	0.361	0.346	0.451
HCC-827	0.557	0.488	0.607	0.641	0.417	0.441	0.386	0.341	0.831	1.17	0.99	0.676	0.417	0.416	0.392	0.374	0.72	0.979	0.765	0.389
HOP-62	0.473	0.42	0.362	0.362	0.674	0.675	0.643	0.509	0.845	0.883	0.992	0.621	0.382	0.41	0.346	0.368	1.01	0.546	0.601	0.585
LC-2-ad	0.906	0.918	0.749	0.9	0.476	0.582	0.579	0.537	1.09	1.12	1.06	1.01	0.379	0.542	0.405	0.371	0.857	0.742	0.703	0.703

Cell Line	relative viability (Midostaurin + Trametinib; first compound 0.01 µM)	relative viability (Midostaurin + Trametinib; first compound 0.03162 µM)	relative viability (Midostaurin + Trametinib; first compound 0.1 µM)	relative viability (Midostaurin + Trametinib; first compound 0.3162 µM)	relative viability (Midostaurin + Dasatinib; first compound 0.01 µM)	relative viability (Midostaurin + Dasatinib; first compound 0.03162 µM)	relative viability (Midostaurin + Dasatinib; first compound 0.1 µM)	relative viability (Midostaurin + Dasatinib; first compound 0.3162 µM)	relative viability ([1]; first compound 0.0128 µM)	relative viability ([1]; first compound 0.04048 µM)	relative viability ([1]; first compound 0.128 µM)	relative viability ([1]; first compound 1.28 µM)	relative viability ([2]; first compound 0.0128 µM)	relative viability ([2]; first compound 0.04048 µM)	relative viability ([2]; first compound 0.128 µM)	relative viability ([2]; first compound 1.28 µM)	relative viability ([3]; first compound 0.0128 µM)	relative viability ([3]; first compound 0.04048 µM)	relative viability ([3]; first compound 0.128 µM)	relative viability ([3]; first compound 1.28 µM)
LCLC-97TM1	0.266	0.194	0.195	0.184	0.822	0.798	0.827	0.968	0.35	0.327	0.567	0.584	0.275	0.252	0.201	0.253	0.875	0.395	0.735	0.968
LCLC-103H	0.723	0.686	0.717	0.681	0.545	0.456	0.389	0.416	1.16	1.13	1.15	0.99	0.438	0.453	0.431	0.423	0.63	0.768	0.802	0.819
LOU-NH91	0.758	0.717	0.814	0.804	0.594	0.534	0.606	0.582	0.498	0.522	0.515	0.518	0.664	0.598	0.699	0.671	0.987	0.921	0.909	0.858
LU99A	0.592	0.558	0.421	0.456	0.434	0.549	0.541	0.348	1.34	1.19	1.04	1.3	0.281	0.28	0.274	0.252	0.609	0.523	0.426	0.628
LXF-289	0.687	0.653	0.671	0.685	0.21	0.173	0.174	0.124	1.07	0.963	1	1.18	0.219	0.217	0.17	0.0946	0.898	0.795	0.734	0.794
NCI-H23	0.369	0.441	0.285	0.299	0.88	0.659	0.559	0.523	1.06	0.682	1.18	0.883	0.359	0.444	0.309	0.266	0.734	0.51	0.541	0.519
NCI-H322M	0.483	0.567	0.536	0.568	0.272	0.233	0.258	0.332	1.23	1.52	1.17	1.17	0.509	0.472	0.445	0.341	0.868	0.931	0.718	0.745
NCI-H441	0.418	0.373	0.516	0.343	0.677	0.533	0.552	0.405	0.591	0.823	0.665	0.616	0.743	0.734	0.565	0.578	0.968	0.958	0.847	0.849
NCI-H460	0.176	0.174	0.116	0.12	0.576	0.493	0.478	0.553	1.14	1.26	1.09	0.99	0.47	0.113	0.278	0.0922	0.735	0.983	0.642	0.709
NCI-H520	0.768	0.717	0.714	0.583	0.176	0.178	0.272	0.203	0.741	0.624	0.358	0.334	0.378	0.432	0.412	0.31	0.738	0.652	0.6	0.543
NCI-H596	0.835	0.847	0.737	0.999	0.661	0.662	0.646	0.729	1.03	1.31	0.908	0.954	0.972	1.17	0.872	0.541	0.779	0.703	0.629	0.611
NCI-H647	0.491	0.593	0.552	0.372	0.181	0.209	0.134	0.103	1.13	1.34	0.877	0.588	0.219	0.262	0.194	0.141	0.422	0.698	0.606	0.421
NCI-H650	1.03	1.07	1	0.945	0.401	0.406	0.385	0.315	1.17	1.23	0.848	0.867	0.663	0.747	0.735	0.732	0.633	0.709	0.443	0.517
NCI-H661	0.597	0.617	0.61	0.534	0.882	0.806	0.852	0.737	0.879	0.823	0.709	0.384	0.362	0.381	0.346	0.34	0.761	0.971	0.819	1.01
NCI-H727	0.381	0.444	0.369	0.375	0.363	0.41	0.462	0.383	0.834		0.808	1.06	0.65		0.581	0.477	1.35		1.22	1.25
